Test results from PMC6151598, “Soluble Epoxide Hydrolase Inhibitory Activity of Components Isolated from Apios americana Medik” (Molecules : A Journal of Synthetic Chemistry and Natural …, 2017).
“And” between values parts separate entries of the source, which are not always exact repeats. Equal values may be shown once.

How the values were obtained:
estrogen receptors = system: estrogen receptors; parameters: method as in PMID 23402539, PMID 26806328; conditions: cited from earlier work
[1] = biological target: T1, soluble epoxide hydrolase (sEH) (Homo sapiens, UniProt P34913); experiment: sEH enzyme kinetics (Lineweaver–Burk and Dixon plots); format: biochemical; conditions: for Binding mode (inhibition type): Lineweaver–Burk plot
T1 construct: purchased Cayman (Ann Arbor, MI, USA) 10011669
T1 sequence (P34913 1-555): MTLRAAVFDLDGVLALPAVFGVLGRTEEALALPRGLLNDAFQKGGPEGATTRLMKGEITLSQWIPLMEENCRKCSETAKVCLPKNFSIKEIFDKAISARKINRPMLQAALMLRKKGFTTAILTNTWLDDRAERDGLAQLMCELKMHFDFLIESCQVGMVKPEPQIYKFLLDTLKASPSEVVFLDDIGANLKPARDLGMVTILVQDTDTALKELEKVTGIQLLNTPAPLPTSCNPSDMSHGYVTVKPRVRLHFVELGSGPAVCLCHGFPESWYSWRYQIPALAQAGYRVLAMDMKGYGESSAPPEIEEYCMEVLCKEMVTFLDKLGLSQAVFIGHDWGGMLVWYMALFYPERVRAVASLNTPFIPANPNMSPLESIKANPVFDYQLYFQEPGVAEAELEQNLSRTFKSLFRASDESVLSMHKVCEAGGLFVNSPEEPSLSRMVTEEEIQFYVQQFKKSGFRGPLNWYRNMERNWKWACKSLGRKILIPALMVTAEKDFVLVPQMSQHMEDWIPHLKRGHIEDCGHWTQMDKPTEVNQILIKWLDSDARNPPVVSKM

[2] = biological target: T1, soluble epoxide hydrolase (sEH); experiment: sEH inhibition assay (fluorometric, PHOME substrate); format: biochemical; conditions: for IC50: concentrations 6.2 to 100 μM, triplicate, read-out: IC50, inhibitory activity on sEH; for Inhibitory ratio on sEH: tested at 100 μM, % of the control value
Method: The sEH assay was performed as described previously. Briefly, 130 µL of sEH in 25.0 mM Bis-Tris-HCl buffer (pH 7.0) and 20.0 µL of the compounds (1–0.06 mM concentration) diluted in MeOH, were added in 96-well plate, to which 50.0 µL of 20.0 µM PHOME was added in the mixture. After initiating the enzyme reaction at 37 °C, the products by hydrolysis of the substrate were monitored at excitation and emission of 330 and 465 nm for one hour. Inhibitory activity (%) = 100 − [(C40 − C0) − (S40 − S0)/(C40 − C0)] × 100 (1) where C40 and S40 were the fluorescence of the control and inhibitor, respectively, after 40 min, S0 and C0 is the fluorescence of inhibitor and control, respectively, at 0 min.

androgen receptors = system: androgen receptors; parameters: method as in PMID 23402539, PMID 26806328; conditions: cited from earlier work

| Structure (SMILES) | Binding activity with estrogen receptors (estrogen receptors) | Binding mode (inhibition type) [1] | IC50 [2] | Inhibitory ratio on sEH [2] | Blocking of [3H]-dihydrotestosterone binding with androgen receptors (androgen receptors) | other results |
| --- | --- | --- | --- | --- | --- | --- |
| O=c1c(-c2ccc(O)cc2O)coc2cc(O)cc(O)c12 [2′-hydroxygenistein] | binding activities | – | – | – | – | – |
| COc1cc(O)cc2c1C(=O)C1(O)c3ccc(O)cc3OC1O2 (centres unmarked) [Compound 1, 5-methoxy-2,5,7,4′-tetrahydroxy-coumaronochromone] | – | competitive inhibitor | < 50 µM and 43.2 µM | over 50% | – | Ki ([1]; inhibitor 0, 25, 50 μM, substrate 3.1 to 25 μM, read-out: Ki (Dixon plot)): 21 µM |
| O=c1c(-c2ccc(O)cc2)coc2cc(O)cc(O)c12 [Compound 2, genestein] | binding activities | mixed inhibitor | – | – | – | – |
| O=c1c(-c2ccc(O)cc2O)coc2cc(O[C@@H]3O[C@H](CO)C(O)[C@H](O)C3O)cc(O)c12 (some centres unmarked) [Compound 6, 2′-hydroxygenistein-7-O-glucoside] | – | – | – | – | blocked the binding | – |
| O=c1c(-c2ccc(O)cc2O)coc2cc(O[C@@H]3O[C@H](CO[C@@H]4O[C@H](CO)[C@@H](O)[C@H](O)[C@H]4O)[C@@H](O)[C@H](O)[C@H]3O)cc(O)c12 [Compound 7, 2′-hydroxygenistein-7-O-gentibioside] | – | – | – | – | blocked the binding | – |
| O=C(O)c1ccc(O)cc1 [Compound 8, 4-hydroxybenzoic acid] | – | – | 69.3 ± 1.9 µM | over 50% | – | – |
